We go through six molecules from patent US10363239B2, “Method for inhibiting growth of cancer cells” (Pain Therapeutics, Inc., priority 2013, dated 2019).

SMILES strings stand for the structures. Where two headings read alike, the source gives them in different places.

For assay [1], the target named is FLNA pentapeptide of SEQ ID NO: 1 (Bn-VAKGL) (Homo sapiens, UniProt P21333). Nature of the assay: FITC-NLX-based FLNA screening assay (inhibition of FITC-naloxone binding to Bn-VAKGL on streptavidin plates). To be noted: 10 nM FITC-NLX.
Assay [2] relates to mu opiate receptor (MOR). Nature of the assay: MOR agonist activity using [35S]GTPγS binding assay in striatal membranes. The conditions noted are these: for MOR agonist activity ([35S]GTPγS binding), FLNA-Binding Compound as Agonist 1 μM + BFNA: 1 μM compound + 1 μM β-funaltrexamine. It is filed as biochemical. The method, boiled down:
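Striatal membranes (200 μg) were preincubated 5 min at 30 °C in HEPES pH 7.5 with 100 mM NaCl, 1 mM MgCl2 and 0.5 nM [35S]GTPγS, then 5 min more with 0.1–10 μM compound. Gαo was immunoprecipitated and bound radioactivity counted by scintillation.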

The mark [3] stands for this setting: FLNA-binding compound 0.1 μM, read-out: Percent Binding Inhibition.
Setting [4] is: FLNA-binding compound 1 μM, read-out: Percent Binding Inhibition.
Where [5] appears, read: read-out: Percent Binding Inhibition, FLNA-binding compound 0.01 μM.
[6] abbreviates: Series C-1, 0.1 μM compound, relative to DAMGO.
Setting [7] is: Series C-1, 0.1 μM compound, [35S]GTPγS binding to Gαo, striatal membranes.
Setting [8] is: Series C-1, 1 μM compound + 1 μM β-FNA.
[9] abbreviates: Series C-1, 1 μM compound + β-FNA, relative to DAMGO + BFNA.
Setting [10] is: Series C-1, 1 μM compound, relative to DAMGO.
Where [11] appears, read: Series C-1, 1 μM compound, [35S]GTPγS binding to Gαo, striatal membranes.
Where [12] appears, read: FLNA-binding compound 0.01 μM, read-out: Percent Binding Inhibition.
[13] abbreviates: 0.1 μM compound relative to DAMGO.
Setting [14] is: 1 μM compound + BFNA relative to DAMGO + BFNA.
The mark [15] stands for this setting: 1 μM compound relative to DAMGO.
[16] abbreviates: read-out: Percent Binding Inhibition, FLNA-binding compound 0.1 μM.
Setting [17] is: read-out: Percent Binding Inhibition, FLNA-binding compound 1 μM.

For `CC(=O)Nc1ccc(S(=O)(=O)N2CCC3(CC2)OCCN3S(=O)(=O)c2ccc(NC(C)=O)cc2)cc1` [Compound C0013], the inhibition at 0.1 µM in assay [1] (setting [3]) is 42.4%. For the same molecule, the inhibition at 1 µM in assay [1] (setting [4]) is 49.1%. Further, in assay [1] (setting [5]), the inhibition at 0.01 µM amounted to 39.6%. Besides, the “% DAMGO (0.1 μM)” value in assay [2] (setting [6]) turned out to be 91.0%. Besides, the “Concentration of FLNA-Binding Compound as Agonist 0.1 μM” value in assay [2] (setting [7]) is 156.6%. Moreover, the “Concentration of FLNA-Binding Compound as Agonist 1 μM + BFNA” value in assay [2] (setting [8]) was determined as 39.6%. Also, the “% DAMGO + BFNA” value in assay [2] (setting [9]) worked out at 61.8%. The “% DAMGO (1 μM)” value in assay [2] (setting [10]) was found to be 108.9%. Further, the “Concentration of FLNA-Binding Compound as Agonist 1 μM” value in assay [2] (setting [11]) is listed as 301.2%.
Regarding `CC1CCC(C)C(OCC(O)CN2CC(C)OC(C)C2)C1` (stereo not drawn) [Compound A0022], the inhibition at 0.01 µM in assay [1] (setting [12]) was found to be 41.9%. Also, the inhibition at 0.1 µM in assay [1] (setting [3]) was found to be 49.7%. Also, the inhibition at 1 µM in assay [1] (setting [4]) was determined as 56.8%. Moreover, in assay [2] (0.1 μM compound), the “MOR agonist activity ([35S]GTPγS binding), FLNA-Binding Compound as Agonist 0.1 μM” value (shortened to “MOR agonist activity … as Agonist 0.1 μM”) amounted to 154.1%. Besides, in assay [2] (setting [13]), the “% DAMGO (0.1 μM)” value was determined as 90.0%. Also, the “MOR agonist activity ([35S]GTPγS binding), FLNA-Binding Compound as Agonist 1 μM” value in assay [2] (1 μM compound) was determined as 216.0%. In addition, the “MOR agonist activity ([35S]GTPγS binding), FLNA-Binding Compound as Agonist 1 μM + BFNA” value (from here on “MOR agonist activity … as Agonist 1 μM + BFNA”) in assay [2] is given as 28.0%. Moreover, the “% DAMGO + BFNA” value in assay [2] (setting [14]) is on record as 53.7%. For the same molecule, in assay [2] (setting [15]), the “% DAMGO (1 μM)” value is reported as 80.9%.
`CC1CCC(C(C)C)C(OCC(O)CN2CCCc3ccccc32)C1` (stereo not drawn) [Compound A0068]: in assay [1] (setting [5]), the inhibition at 0.01 µM was determined as 51.9%. For the same molecule, in assay [1] (setting [16]), the inhibition at 0.1 µM amounted to 54.2%. In addition, in assay [1] (setting [17]), the inhibition at 1 µM stood at 58.3%. The “MOR agonist activity … as Agonist 0.1 μM” value in assay [2] (0.1 μM compound) is recorded as 73.9%. Moreover, the “% DAMGO (0.1 μM)” value in assay [2] (setting [13]) turned out to be 36.8%. Further, in assay [2] (1 μM compound), the “MOR agonist activity ([35S]GTPγS binding), FLNA-Binding Compound as Agonist 1 μM” value is reported as 110.4%. In addition, the “MOR agonist activity … as Agonist 1 μM + BFNA” value in assay [2] is on record as 98.1%. For the same molecule, the “% DAMGO + BFNA” value in assay [2] (setting [14]) is reported as 182.0%. For the same molecule, the “% DAMGO (1 μM)” value in assay [2] (setting [15]) worked out at 35.2%.
Turning to `CC(=O)c1ccc(S(=O)(=O)N2CCC3(CC2)OCCN3S(C)(=O)=O)cc1` [Compound C0056], the inhibition at 0.01 µM in assay [1] (setting [12]) stood at 33.7%. Also, the inhibition at 0.1 µM in assay [1] (setting [3]) came out at 38.9%. In assay [1] (setting [4]), the inhibition at 1 µM was found to be 41.4%. In addition, the “% DAMGO (0.1 μM)” value in assay [2] (Series C-2, 0.1 μM compound, relative to DAMGO) is reported as 68.0%. The “MOR agonist activity, percent [35S]GTPγS binding at the stated compound concentration” value was found to be 98.6% in assay [2] (Series C-2, 0.1 μM compound, [35S]GTPγS binding to Gαo, striatal membranes); 86.3% in assay [2] (Series C-2, 1 μM compound + 1 μM β-FNA); 193.4% in assay [2] (Series C-2, 1 μM compound, [35S]GTPγS binding to Gαo, striatal membranes). Also, the “% DAMGO + BFNA” value in assay [2] (Series C-2, 1 μM compound + β-FNA, relative to DAMGO + BFNA) was found to be 196.1%. Further, the “% DAMGO (1 μM)” value in assay [2] (Series C-2, 1 μM compound, relative to DAMGO) worked out at 83.0%.
For the molecule `O=S(=O)(c1ccc(Br)cc1C(F)(F)F)N1CCC2(CC1)OCCN2S(=O)(=O)c1ccc(Br)cc1C(F)(F)F` [Compound C0068], the inhibition at 0.01 µM in assay [1] (setting [5]) is 53.7%. In addition, the inhibition at 0.1 µM in assay [1] (setting [16]) was 58.6%. Moreover, the inhibition at 1 µM in assay [1] (setting [17]) turned out to be 62.2%. In addition, the “% DAMGO (0.1 μM)” value in assay [2] (setting [6]) was 53.4%. In addition, the “Concentration of FLNA-Binding Compound as Agonist 0.1 μM” value in assay [2] (setting [7]) came to 107.2%. In assay [2] (setting [8]), the “Concentration of FLNA-Binding Compound as Agonist 1 μM + BFNA” value is 165.9%. Further, the “% DAMGO + BFNA” value in assay [2] (setting [9]) stood at 307.8%. The “% DAMGO (1 μM)” value in assay [2] (setting [10]) is given as 83.8%. For the same molecule, in assay [2] (setting [11]), the “Concentration of FLNA-Binding Compound as Agonist 1 μM” value is 263.1%.
`CC1CCC(C(C)C)C(OCC(O)CN2CCCCC2)C1` (stereo not drawn) [Compound A0005]: the inhibition at 0.01 µM in assay [1] (setting [5]) was 34.2%. The inhibition at 0.1 µM in assay [1] (setting [16]) stood at 38.2%. In assay [1] (setting [17]), the inhibition at 1 µM was 43.8%. For the same molecule, the “MOR agonist activity … as Agonist 0.1 μM” value in assay [2] (0.1 μM compound) was determined as 179.7%. For the same molecule, the “% DAMGO (0.1 μM)” value in assay [2] (setting [13]) amounted to 105.0%. Moreover, the “MOR agonist activity ([35S]GTPγS binding), FLNA-Binding Compound as Agonist 1 μM” value in assay [2] (1 μM compound) came out at 239.2%. Besides, in assay [2], the “MOR agonist activity … as Agonist 1 μM + BFNA” value is listed as 23.5%. In assay [2] (setting [14]), the “% DAMGO + BFNA” value is listed as 45.1%. Also, the “% DAMGO (1 μM)” value in assay [2] (setting [15]) is on record as 89.6%.
